target: T1, RORγ (Homo sapiens, UniProt P51449); assay: RORγ Reporter Assay (Gal4); type: cell-based; conditions: HEK293 co-transfected with RORγ LBD-Gal4 and luciferase reporter, 24 h incubation, absolute IC50; read-out: IC50
T1 construct: Gal4 (galactose-responsive transcription factor); expressed in transfected cells; host or cells: HEK293
T1 sequence (P51449 269-508 limits assumed): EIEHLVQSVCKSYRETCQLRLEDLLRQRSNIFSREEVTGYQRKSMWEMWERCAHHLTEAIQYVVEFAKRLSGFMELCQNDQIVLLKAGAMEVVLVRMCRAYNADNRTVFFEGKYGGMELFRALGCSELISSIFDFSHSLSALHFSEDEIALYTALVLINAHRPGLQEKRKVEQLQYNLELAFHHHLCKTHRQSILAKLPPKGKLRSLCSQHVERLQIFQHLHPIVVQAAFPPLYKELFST
Description: RORγ Reporter Assay (Gal4)
The HEK293 cell line is co-transfected transiently with two plasmids, one with the RORγ ligand-binding domain fused to galactose-responsive transcription factor (Gal4), and the other with the luciferase reporter gene and Gal binding sites (UAS). This construction allows to determine the RORγ activity in a cellular system through the measurement of luminescence.
A suspension of RORγ reporter cells was dispensed into plates and cultured 2 h at 37° C. and 5% CO2. Media formulation consisted in DMEM/F-12 medium (Gibco) supplemented with 10% heat inactivated FBS (Sigma-Aldrich), non-essential aminoacids (Sigma-Aldrich), 2 mM Glutamax (Gibco) and 100 U/mF penicillin (Sigma-Aldrich). Dose-response curves with compounds were prepared in 100% DMSO and further diluted […] in culture medium. Compound solutions were added to the plate containing cells (final DMSO concentration of 0.1%) and incubated for 24 h at 37° C. and 5% CO2. Luciferase detection reagent was added to each well, and relative light units […] were quantified from each assay well using a plate reading luminometer.
Values of average RFU±S.D. were computed for all treatment sets, followed by the calculations of percent-reduction of RORγ activity in response to respective test compound. The following formula was used: activity=100*[1−[x test compound/average vehicle]where the theoretical minimum reduction (0% reduction).

Point of comparison: NC(=O)CN1CC[C@H](CNc2ncnc(N3CCOC[C@@H]3c3ccc(C(F)(F)F)cn3)c2F)[C@H](F)C1 (single isomer, unassigned) [Example H6-12-2, 2-((3R*,4S*)-3-fluoro-4-(((5-fluoro-6-((S)-3-(5-(trifluoromethyl)pyridin-2-yl)morpholino)pyrimidin-4-yl)amino)methyl)piperidin-1-yl)acetamide], IC50 910 nM. Against it:
- NC(=O)CN1CC[C@H](CNc2ncnc(N3CC(F)(F)C[C@@H]3c3ccc(C(F)(F)F)cc3)c2F)[C@@H](O)C1 (mixture of isomers) [Example H6-17, 2-((3RS,4RS)-4-(((6-((R)-4,4-difluoro-2-(4-(trifluoromethyl)phenyl)pyrrolidin-1-yl)-5-fluoropyrimidin-4-yl)amino)methyl)-3-hydroxypiperidin-1-yl)acetamide] — 91-fold lower, 10 nM
- NC(=O)CN1CC[C@H](CNc2ncnc(N3CC(F)(F)C[C@@H]3c3ccc(C(F)(F)F)cn3)c2F)[C@@H](O)C1 (mixture of isomers) [Example H6-20, 2-((3RS,4RS)-4-(((6-((R)-4,4-difluoro-2-(5-(trifluoromethyl)pyridin-2-yl)pyrrolidin-1-yl)-5-fluoropyrimidin-4-yl)amino)methyl)-3-hydroxypiperidin-1-yl)acetamide] — 1.9-fold lower, 488 nM
- NC(=O)CN1CCC(CNc2ncnc(N3C[C@H](F)C[C@@H]3c3ccc(C(F)(F)F)cc3)c2F)CC1 (racemic) [Example H6-27, rac-2-(4-(((5-fluoro-6-((2R,4R)-4-fluoro-2-(4-(trifluoromethyl)phenyl)pyrrolidin-1-yl)pyrimidin-4-yl)amino)methyl)piperidin-1-yl)acetamide] — 4.3-fold lower, 210 nM
- NC(=O)CN1CC[C@H](CNc2ncnc(N3CCOC[C@@H]3c3ccc(C(F)(F)F)cc3)c2F)[C@@H](O)C1 (single isomer, unassigned) [Example H6-7-1, 2-((3R*,4R*)-4-(((5-fluoro-6-((S)-3-(4-(trifluoromethyl)phenyl)morpholino)pyrimidin-4-yl)amino)methyl)-3-hydroxypiperidin-1-yl)acetamide] — 46-fold lower, 20 nM
- NC(=O)CN1CC[C@@H](CNc2ncnc(N3CCOC[C@@H]3c3ccc(C(F)(F)F)cc3)c2F)[C@H](O)C1 (single isomer, unassigned) [Example H6-7-2, 2-((3R*,4R*)-4-(((5-fluoro-6-((S)-3-(4-(trifluoromethyl)phenyl)morpholino)pyrimidin-4-yl)amino)methyl)-3-hydroxypiperidin-1-yl)acetamide] — 26-fold lower, 35 nM
- NC(=O)CN1CCC(CNc2ncnc(N3CCOC[C@@H]3c3ccc(C(F)(F)F)cc3)c2F)C(F)(F)C1 (single isomer, unassigned) [Example H6-9-1, 2-((R*)-3,3-difluoro-4-(((5-fluoro-6-((S)-3-(4-(trifluoromethyl)phenyl)morpholino)pyrimidin-4-yl)amino)methyl)piperidin-1-yl)acetamide] — 9.1-fold lower, 100 nM
- NC(=O)CN1CCC(CNc2ncnc(N3CCOC[C@@H]3c3ccc(C(F)(F)F)cc3)c2F)C(F)(F)C1 (single isomer, unassigned) [Example H6-9-2, 2-((R*)-3,3-difluoro-4-(((5-fluoro-6-((S)-3-(4-(trifluoromethyl)phenyl)morpholino)pyrimidin-4-yl)amino)methyl)piperidin-1-yl)acetamide] — 51-fold lower, 18 nM
- NC(=O)CN1CC[C@H](CNc2ncnc(N3CCOC[C@@H]3c3ccc(C(F)(F)F)cc3)c2F)[C@@H](F)C1 (single isomer, unassigned) [Example H6-10-1, 2-((3R*,4R*)-3-fluoro-4-(((5-fluoro-6-((S)-3-(4-(trifluoromethyl)phenyl)morpholino)pyrimidin-4-yl)amino)methyl)piperidin-1-yl)acetamide] — 23-fold lower, 39 nM
- NC(=O)CN1CC[C@H](CNc2ncnc(N3CCOC[C@@H]3c3ccc(C(F)(F)F)cc3)c2F)[C@@H](F)C1 (single isomer, unassigned) [Example H6-10-2, 2-((3R*,4R*)-3-fluoro-4-(((5-fluoro-6-((S)-3-(4-(trifluoromethyl)phenyl)morpholino)pyrimidin-4-yl)amino)methyl)piperidin-1-yl)acetamide] — 70-fold lower, 13 nM
- NC(=O)CN1CCC(CNc2ncnc(N3CCOC[C@@H]3c3ccc(C(F)(F)F)cn3)c2F)C(F)(F)C1 (single isomer, unassigned) [Example H6-11-1, 2-((R*)-3,3-difluoro-4-(((5-fluoro-6-((S)-3-(5-(trifluoromethyl)pyridin-2-yl)morpholino)pyrimidin-4-yl)amino)methyl)piperidin-1-yl)acetamide] — 2.5-fold lower, 360 nM
- NC(=O)CN1CC[C@H](CNc2ncnc(N3CCOC[C@@H]3c3ccc(C(F)(F)F)cn3)c2F)[C@H](F)C1 (single isomer, unassigned) [Example H6-12-1, 2-((3R*,4S*)-3-fluoro-4-(((5-fluoro-6-((S)-3-(5-(trifluoromethyl)pyridin-2-yl)morpholino)pyrimidin-4-yl)amino)methyl)piperidin-1-yl)acetamide] — 1.7-fold lower, 550 nM
- NC(=O)CN1CC[C@H](CNc2ncnc(N3CCOC[C@@H]3c3ccc(C(F)(F)F)cn3)c2F)[C@@H](F)C1 (single isomer, unassigned) [Example H6-13-1, 2-((3R*,4R*)-3-fluoro-4-(((5-fluoro-6-((S)-3-(5-(trifluoromethyl)pyridin-2-yl)morpholino)pyrimidin-4-yl)amino)methyl)piperidin-1-yl)acetamide] — 5.7-fold lower, 160 nM
- NC(=O)CN1CCC(CNc2ncnc(N3CC(F)(F)C[C@@H]3c3ccc(C(F)(F)F)cc3)c2F)C(F)(F)C1 (single isomer, unassigned) [Example H6-15-1, 2-((R*)-4-(((6-((R)-4,4-difluoro-2-(4-(trifluoromethyl)phenyl)pyrrolidin-1-yl)-5-fluoropyrimidin-4-yl)amino)methyl)-3,3-difluoropiperidin-1-yl)acetamide] — 100-fold lower, 9 nM
- NC(=O)CN1CCC(CNc2ncnc(N3CC(F)(F)C[C@@H]3c3ccc(C(F)(F)F)cc3)c2F)C(F)(F)C1 (single isomer, unassigned) [Example H6-15-2, 2-((R*)-4-(((6-((R)-4,4-difluoro-2-(4-(trifluoromethyl)phenyl)pyrrolidin-1-yl)-5-fluoropyrimidin-4-yl)amino)methyl)-3,3-difluoropiperidin-1-yl)acetamide] — 36-fold lower, 25 nM
- NC(=O)CN1CC[C@H](CNc2ncnc(N3CC(F)(F)C[C@@H]3c3ccc(C(F)(F)F)cc3)c2F)[C@@H](F)C1 (single isomer, unassigned) [Example H6-16-1, 2-((3R*,4R*)-4-(((6-((R)-4,4-difluoro-2-(4-(trifluoromethyl)phenyl)pyrrolidin-1-yl)-5-fluoropyrimidin-4-yl)amino)methyl)-3-fluoropiperidin-1-yl)acetamide] — 65-fold lower, 14 nM
- NC(=O)CN1CC[C@H](CNc2ncnc(N3CC(F)(F)C[C@@H]3c3ccc(C(F)(F)F)cc3)c2F)[C@@H](F)C1 (single isomer, unassigned) [Example H6-16-2, 2-((3R*,4R*)-4-(((6-((R)-4,4-difluoro-2-(4-(trifluoromethyl)phenyl)pyrrolidin-1-yl)-5-fluoropyrimidin-4-yl)amino)methyl)-3-fluoropiperidin-1-yl)acetamide] — 91-fold lower, 10 nM
- NC(=O)CN1CC[C@H](CNc2ncnc(N3CC(F)(F)C[C@@H]3c3ccc(C(F)(F)F)cc3)c2F)[C@@H](O)C1 (single isomer, unassigned) [Example H6-17-2, 2-((3R*,4R*)-4-(((6-((R)-4,4-difluoro-2-(4-(trifluoromethyl)phenyl)pyrrolidin-1-yl)-5-fluoropyrimidin-4-yl)amino)methyl)-3-hydroxypiperidin-1-yl)acetamide] — 29-fold lower, 31 nM
- NC(=O)CN1CC[C@H](CNc2ncnc(N3CC(F)(F)C[C@@H]3c3ccc(C(F)(F)F)cn3)c2F)[C@@H](F)C1 (single isomer, unassigned) [Example H6-18-1, 2-((3R*,4R*)-4-(((6-((R)-4,4-difluoro-2-(5-(trifluoromethyl)pyridin-2-yl)pyrrolidin-1-yl)-5-fluoropyrimidin-4-yl)amino)methyl)-3-fluoropiperidin-1-yl)acetamide] — 6.5-fold lower, 140 nM
- NC(=O)CN1CC[C@H](CNc2ncnc(N3CC(F)(F)C[C@@H]3c3ccc(C(F)(F)F)cn3)c2F)[C@@H](F)C1 (single isomer, unassigned) [Example H6-18-2, 2-((3R*,4R*)-4-(((6-((R)-4,4-difluoro-2-(5-(trifluoromethyl)pyridin-2-yl)pyrrolidin-1-yl)-5-fluoropyrimidin-4-yl)amino)methyl)-3-fluoropiperidin-1-yl)acetamide] — 15-fold lower, 60 nM
- NC(=O)CN1CCC(CNc2ncnc(N3CC(F)(F)C[C@@H]3c3ccc(C(F)(F)F)cn3)c2F)C(F)(F)C1 (single isomer, unassigned) [Example H6-19-2, 2-((R*)-4-(((6-((R)-4,4-difluoro-2-(5-(trifluoromethyl)pyridin-2-yl)pyrrolidin-1-yl)-5-fluoropyrimidin-4-yl)amino)methyl)-3,3-difluoropiperidin-1-yl)acetamide] — 20-fold lower, 46 nM

— US11447479B2, “Compounds active towards nuclear receptors” (NUEVOLUTION A/S, priority 2019, dated 2022)
